Our source for the IC50 and inhibition values is patent publication US8134015B2, “Compound inhibiting in vivo phosphorous transport and medicine containing the same” (Kyowa Hakko Kirin Co., Ltd., priority 2003, dated 2012).

Molecules are shown by their SMILES. Where only a bound is given, the exact number is not on record here.

In general, IC50 refers to the concentration that gives 50% inhibition. One may read the inhibition as how much of the control response was suppressed. Read a high inhibition as a response far below the control.

The target in the first experiment is T1, rat NaPi-2b (Rattus norvegicus, UniProt Q9JJ09).
T1 construct: expressed in transfected cells; host or cells: Xenopus oocytes injected with cRNA
T1 sequence (Q9JJ09 1-695): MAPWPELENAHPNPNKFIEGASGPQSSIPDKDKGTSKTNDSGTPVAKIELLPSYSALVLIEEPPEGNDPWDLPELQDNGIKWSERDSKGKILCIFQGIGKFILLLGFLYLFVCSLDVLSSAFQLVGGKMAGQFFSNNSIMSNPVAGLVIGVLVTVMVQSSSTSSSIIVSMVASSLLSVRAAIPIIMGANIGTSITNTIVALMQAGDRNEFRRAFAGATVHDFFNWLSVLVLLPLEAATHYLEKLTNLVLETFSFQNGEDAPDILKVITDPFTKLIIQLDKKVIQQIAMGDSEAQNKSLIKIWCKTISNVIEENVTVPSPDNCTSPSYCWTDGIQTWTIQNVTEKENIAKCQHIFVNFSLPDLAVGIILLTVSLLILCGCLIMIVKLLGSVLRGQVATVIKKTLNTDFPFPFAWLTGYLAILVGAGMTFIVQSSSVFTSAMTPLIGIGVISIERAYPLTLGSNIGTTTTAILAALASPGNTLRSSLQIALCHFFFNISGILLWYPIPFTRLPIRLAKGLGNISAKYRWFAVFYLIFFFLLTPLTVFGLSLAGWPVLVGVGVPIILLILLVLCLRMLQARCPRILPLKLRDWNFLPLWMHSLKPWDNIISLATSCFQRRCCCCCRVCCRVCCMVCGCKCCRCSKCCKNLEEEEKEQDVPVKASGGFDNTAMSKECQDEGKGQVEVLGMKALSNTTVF
Kind of experiment: Sodium-dependent phosphate uptake of Xenopus oocytes which expressed NaPi-2b (32P). The class given is cell-based. To be noted: Xenopus oocytes expressing rat NaPi-2b, 32P radioactive phosphorus; read-out: IC50 (phosphate uptake inhibitory activity). In short, it runs like this:
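Steps: rat NaPi-2b cDNA cloned from small intestine; cRNA made and injected into oocytes; 2-day expression; 32P phosphate uptake with compound; % inhibition at 300/100 μM taken from one curve.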
As to `CCN(CC)CCN(C)Cc1cccc(C(=O)Nc2sc3c(c2C(=O)N/N=C/c2ccc(Cl)c(C(F)(F)F)c2)CCCC3)c1` [Compound 613, N-[3-(4-Chloro-3-trifluoromethyl-benzylidene-hydrazinocarbonyl)-4,5,6,7-tetrahydro-benzo[b]thiophen-2-yl]-3-{[(2-diethylamino-ethyl)-methyl-amino]-methyl}-benzamide], the half-maximal inhibitory concentration (IC50) stood at 1.41 µM. Same read-out and setting: as for `CCOCCN(CCOCC)Cc1ccc(C(=O)Nc2ccc(Br)cc2C(=O)N/N=C/c2ccc(Cl)c(C(F)(F)F)c2)cc1` [Compound 738, 4-{[Bis-(2-ethoxy-ethyl)-amino]-methyl}-N-[4-bromo-2-(4-chloro-3-trifluoromethyl-benzylidene-hydrazinocarbonyl)-phenyl]-benzamide], the figure is 7.55 µM; as for `Cc1ccc(/C=N/NC(=O)c2cc(Cl)ccc2NC(=O)c2cccc(CSCCS(=O)(=O)O)c2)cc1C` [Compound 694, 2-{3-[4-Chloro-2-(3,4-dimethyl-benzylidene-hydrazinocarbonyl)-phenylcarbamoyl]-benzylsulfanyl}-ethanesulfonic acid], 38.8 µM. Still for that read-out and setting: the result for `COc1cccc(/C=N/NC(=O)c2cc(Br)ccc2NC(=O)c2ccc(CN3CCN(CC(=O)N4CCOCC4)CC3)cc2)c1` [Compound 732, N-[4-Bromo-2-(3-methoxy-benzylidene-hydrazinocarbonyl)-phenyl]-4-[4-(2-morpholin-4-yl-2-oxo-ethyl)-piperazin-1-ylmethyl]-benzamide] reads 29.4 µM. Still for that read-out and setting: the result for `COc1ccc(/C=N/NC(=O)c2cc(Br)ccc2NC(=O)c2ccc(CN3CCN(CCO)CC3)cc2)cc1` [Compound 322, N-[4-Bromo-2-(4-methoxy-benzylidene-hydrazinocarbonyl)-phenyl]-4-[4-(2-hydroxy-ethyl)-piperazin-1-ylmethyl]-benzamide] reads 5.93 µM; that for `COc1cccc(/C=N/NC(=O)c2cc(Br)ccc2NC(=O)c2ccc(CNCCCN(C)c3ccccc3)cc2)c1` [Compound 763, N-[4-Bromo-2-(3-methoxy-benzylidene-hydrazinocarbonyl)-phenyl]-4-{[3-(methyl-phenyl-amino)-propylamino]-methyl}-benzamide], 11.2 µM. `Cc1ccc(/C=N/NC(=O)c2cc(Br)ccc2NC(=O)c2ccncc2)cc1` [Compound 169, N-[4-Bromo-2-(4-methyl-benzylidene-hydrazinocarbonyl)-phenyl]-isonicotinamide]: the IC50 came to 4.24 µM.

Turning to `COc1ccc(/C=N/NC(=O)c2cc(N3CCCCC3)ccc2NC(=O)c2cccc(CN(CC(C)O)CC(C)O)c2)cc1` (stereo not drawn) [Compound 958, 3-{[Bis-(2-hydroxy-propyl)-amino]-methyl}-N-[2-(4-methoxy-benzylidene-hydrazinocarbonyl)-4-piperidin-1-yl-phenyl]-benzamide], the IC50 was < 1 µM. `COc1ccc(C(=O)Nc2ccccc2C(=O)N/N=C/c2ccc(N(C)C)cc2)cc1OC` [Compound 104, N-[2-(4-Dimethylamino-benzylidene-hydrazinocarbonyl)-phenyl]-3,4-dimethoxy-benzamide]: the IC50 worked out at 11.3 µM. Still for that read-out and setting: the result for `COc1ccc(/C=N/NC(=O)c2cc(Cl)ccc2NC(=O)c2cccc(CN(C)CCO)c2)cc1` [Compound 401, N-[4-Chloro-2-(4-methoxy-benzylidene-hydrazinocarbonyl)-phenyl]-3-{[(2-hydroxy-ethyl)-methyl-amino]-methyl}-benzamide] reads 6.13 µM; that for `O=C(Nc1ccc(Cl)cc1C(=O)N/N=C/c1ccc(F)cc1)c1cccnc1` [Compound 185, N-[4-Chloro-2-(4-fluoro-benzylidene-hydrazinocarbonyl)-phenyl]-nicotinamide], 2.02 µM. Consider `O=C(Nc1ccc(Br)cc1C(=O)N/N=C/c1ccc(Cl)c(C(F)(F)F)c1)c1ccc(CN2CCC(CO)CC2)cc1` [Compound 337, N-[4-Bromo-2-(4-chloro-3-trifluoromethyl-benzylidene-hydrazinocarbonyl)-phenyl]-4-(4-hydroxymethyl-piperidin-1-ylmethyl)-benzamide], for which the concentration for half-maximal inhibition (IC50) came out at 1.39 µM. The same measure, in the same setting: as for `COc1ccc(/C=N/NC(=O)c2cc(N3CCCCC3)ccc2NC(=O)c2cccc(CSCCO)c2)cc1` [Compound 885, 3-(2-Hydroxy-ethylsulfanylmethyl)-N-[2-(4-methoxy-benzylidene-hydrazinocarbonyl)-4-piperidin-1-yl-phenyl]-benzamide], the figure is 1.24 µM; as for `Cc1ccc(/C=N/NC(=O)c2cc(Br)ccc2NC(=O)c2ccc(CN3CCN(CC(=O)N4CCOCC4)CC3)cc2)cc1` [Compound 728, N-[4-Bromo-2-(4-methyl-benzylidene-hydrazinocarbonyl)-phenyl]-4-[4-(2-morpholin-4-yl-2-oxo-ethyl)-piperazin-1-ylmethyl]-benzamide], 20.3 µM; as for `COc1ccc(C(=O)Nc2ccc(C)cc2C(=O)N/N=C/c2ccc(C)c(C)c2)cc1OC` [Compound 150, N-[2-(3,4-Dimethyl-benzylidene-hydrazinocarbonyl)-4-methyl-phenyl]-3,4-dimethoxy-benzamide], 1.09 µM.

In the case of `COc1cc(OC)cc(C(=O)Nc2ccccc2C(=O)N/N=C/c2ccc(Cl)c(C(F)(F)F)c2)c1` [Compound 89, N-[2-(4-Chloro-3-trifluoromethyl-benzylidene-hydrazinocarbonyl)-phenyl]-3,5-dimethoxy-benzamide], the half-inhibitory concentration (IC50) amounted to 1.11 µM. As to `Cc1cccc(/C=N/NC(=O)c2cc(I)ccc2NC(=O)c2cccc(CN3CCC(N4CCCCC4)CC3)c2)c1` [Compound 484, 3-[1,4′]Bipiperidinyl-1′-ylmethyl-N-[4-iodo-2-(3-methyl-benzylidene-hydrazinocarbonyl)-phenyl]-benzamide], the 50% inhibitory concentration (IC50) was < 3 µM. On the same count and under the same terms, as for `Cc1sc(NC(=O)c2cccc(CN(CC(C)O)CC(C)O)c2)c(C(=O)N/N=C/c2ccc(Cl)c(C(F)(F)F)c2)c1C` (stereo not drawn) [Compound 847, 3-{[Bis-(2-hydroxy-propyl)-amino]-methyl}-N-[3-(4-chloro-3-trifluoromethyl-benzylidene-hydrazinocarbonyl)-4,5-dimethyl-thiophen-2-yl]-benzamide], the figure is < 3 µM. On the same count and under the same terms, the result for `Cc1ccc(/C=N/NC(=O)c2ccccc2NC(=O)c2ccncc2)cc1C` [Compound 138, N-[2-(3,4-Dimethyl-benzylidene-hydrazinocarbonyl)-phenyl]-isonicotinamide] reads 4.47 µM; that for `CCN(CCO)Cc1cccc(C(=O)Nc2ccc(Cl)cc2C(=O)N/N=C/c2ccc(F)cc2)c1` [Compound 423, N-[4-Chloro-2-(4-fluoro-benzylidene-hydrazinocarbonyl)-phenyl]-3-{[ethyl-(2-hydroxy-ethyl)-amino]-methyl}-benzamide], < 3 µM. Same read-out and setting: the result for `CCN(CC)CCN(C)Cc1cccc(C(=O)Nc2ccc(OCCCCF)cc2C(=O)N/N=C/c2cccc(F)c2)c1` [Compound 1057, 3-{[(2-Diethylamino-ethyl)-methyl-amino]-methyl}-N-[2-(3-fluoro-benzylidene-hydrazinocarbonyl)-4-(4-fluoro-butoxy)-phenyl]-benzamide] reads 1.26 µM; that for `Cc1csc(NC(=O)c2cccc(CSc3nc[nH]n3)c2)c1C(=O)N/N=C/c1ccc(Cl)c(C(F)(F)F)c1` [Compound 555, N-[3-(4-Chloro-3-trifluoromethyl-benzylidene-hydrazinocarbonyl)-4-methyl-thiophen-2-yl]-3-(1H-[1,2,4]triazol-3-ylsulfanylmethyl)-benzamide], < 3 µM. In the case of `Cc1ccc(/C=N/NC(=O)c2cc3ccccc3cc2NC(=O)c2cccc(CN3CCN(CCO)CC3)c2)cc1C` [Compound 971, N-[3-(3,4-Dimethyl-benzylidene-hydrazinocarbonyl)-naphthalen-2-yl]-3-[4-(2-hydroxy-ethyl)-piperazin-1-ylmethyl]-benzamide], the IC50 is < 3 µM.

For `O=C(Nc1ccccc1C(=O)N/N=C/c1cccc(O)c1)c1ccc(F)cc1` [Compound 80, 4-Fluoro-N-[2-(3-hydroxy-benzylidene-hydrazinocarbonyl)-phenyl]-benzamide], the concentration for half-maximal inhibition (IC50) turned out to be 10.9 µM. Still for that read-out and setting: as for `Cc1ccc(/C=N/NC(=O)c2cc(Br)ccc2NC(=O)c2ccc(CN3CCN(CCO)CC3)cc2)cc1` [Compound 317, N-[4-Bromo-2-(4-methyl-benzylidene-hydrazinocarbonyl)-phenyl]-4-[4-(2-hydroxy-ethyl)-piperazin-1-ylmethyl]-benzamide], the figure is 5.02 µM.

The experiment is the same for the next values; noted with them: phosphate uptake, oocytes expressing rat NaPi-2b; 300 μM, determined from inhibition curve.
The compound `Cc1ccc(CNNC(=O)c2cc(Cl)ccc2NC(=O)c2cccc(CSCCO)c2)cc1` [Compound 547, N-{4-Chloro-2-[N′-(4-methyl-benzyl)-hydrazinocarbonyl]-phenyl}-3-(2-hydroxy-ethylsulfanylmethyl)-benzamide] displayed an inhibition at 300 µM of 66.6%.

For the compound `Cc1csc(NC(=O)c2cccc(CSCCS(=O)(=O)O)c2)c1C(=O)N/N=C/c1ccc(Cl)c(C(F)(F)F)c1` [Compound 784, 2-{3-[3-(4-Chloro-3-trifluoromethyl-benzylidene-hydrazinocarbonyl)-4-methyl-thiophen-2-ylcarbamoyl]-benzylsulfanyl}-ethanesulfonic acid], the inhibition at 300 µM was found to be 88.5%.
